Values quoted from earlier work, collected in PMC11600176 (JACS Au, 2024).

Conditions: aerated acetonitrile

## CCCN1C(=O)c2cccc3c(N)ccc(c23)C1=O [N-propyl-4-amino-1,8-naphthalimide]
  Φf fluorescence quantum yield of the standard: 0.48
